{"source": "paper PMC11582173", "about": "“Synthesis, cytotoxicity, anti-inflammatory, anti-metastatic and anti-oxidant activities of novel chalcones incorporating 2-phenoxy-N-arylacetamide and thiophene moieties: induction of apoptosis in MCF7 and HEP2 cells” (Naunyn-Schmiedeberg's Archives of Pharmacology, 2024)", "key": {"BAX": {"test_system": "BAX", "assay": "ELISA, BAX concentration", "type": "cell-based, human", "description": "(§1) The concentrations of matrix metalloproteinase-2 (MMP2), matrix metalloproteinase-9 (MMP9), Bcl2, BAX, P53, Malondialdehyde (MDA), Glutathione (GSH), caspase 8, caspase 9 and IL-6 were measured quantitatively in 5c treated MCF7 and HEP2 cells using ELISA (Enzyme-Linked Immunosorbent Assay) (Table 4). Gelatinases are a collective word for MMP-2 and MMP-9, where MMP-2 is gelatinase-A and MMP-9 is gelatinase-B. Solid tumor invasion, metastasis, and angiogenesis have long been linked to gelatinases (Das et al. [2021]). […] Bcl2 is a crucial protein that targets apoptosis inhibition. It is regarded as a predictive biomarker or therapeutic target in the diagnosis of cancer due to its broad expression in a variety of cancers (Porter et al. [2009]). […] The pro-apoptotic protein BAX permeabilizes the mitochondrial outer membrane by changing from a cytosolic monomer to a hazardous oligomer triggering the apoptosis process (Fulda and Debatin [2006]). […] P53 transcription factor performs an essential tumor suppressor role by coordinating a wide range of physiological responses, including DNA repair, cell cycle arrest, cellular senescence, cell death, cell differentiation, and metabolism (Liebl and Hofmann [2021]). It was activated in MCF7 and HEP2-treated cells with values (4.28 and 3.109 ng/mL), respectively, compared to their controls (3.44 and 2.06 ng/mL). […]"}, "MMP2": {"test_system": "MMP2", "assay": "ELISA, MMP2 concentration", "type": "cell-based, human", "description": "as §1"}, "[1]": {"test_system": "human laryngeal carcinoma (HEP2) cells", "assay": "SRB cytotoxic assay, HEP2", "type": "cell-based", "conditions": "HEp-2, 48 h", "description": "All the prepared compounds were screened at a concentration of 100 µg/mL against six different human cell lines: human laryngeal carcinoma (HEP2), human colorectal carcinoma (HCT116), human breast carcinoma (MCF7), human Lung carcinoma (A549), human liver carcinoma (HEPG2), and normal African Green monkey kidney cell line (VERO). Doxorubicin was used as a positive control for comparison purposes.\nThe human laryngeal carcinoma (HEP2), colorectal carcinoma (HCT116), breast carcinoma (MCF7), Lung carcinoma (A549), liver carcinoma (HEPG2), and normal African Green monkey kidney cell line (VERO) were purchased from American Tissue Culture Collection (Rockville, MD, USA). The cells were treated for 48 h with a single dose (100 µg/mL) of all the tested chalcones. […] In brief, the cells were seeded in a 96-well microtiter plate at a concentration of 5×10^3 cells/well in 100 µL fresh RPMI-1640 medium and left to attach to the plates for 24 h. Then, cells were incubated with 100 μL of different concentrations (50, 25, 12.5, 6.25, and 0.0 µg/mL) of 5c in triplicate at 37 °C for 48 h. After that, the cells were fixed with 10 µL cold 100% Trichloroacetic acid (TCA) for 1h at 4 °C. The wells were then washed 1 time with distilled water using (automatic Tecan washer, Germany) and stained for 30 min at room temperature with 50 µL 0.4% SRB dissolved in 1% acetic acid. The plates were air-dried and the dye was solubilized with 100 µl/well of 1M tris base (pH 10.5) for 5 min. The optical density (O.D.) of each well was measured spectrophotometrically at 570 nm with an ELISA microplate reader (Sunrise Tecan reader, Germany) with automatic shaking for 30 seconds before reading. The mean background absorbance was subtracted automatically and mean values for each drug concentration were calculated. The percentage of cell survival was calculated as follows: Survival fraction= O.D. (treated cells)/ O.D. (control cells) (Bhat et al. [2023])."}}, "note": "Where “and” joins values, the source holds several entries; their conditions need not be identical. Identical values can stand only once.", "data": [{"molecule": "COc1ccc(NC(=O)COc2ccc(C=CC(=O)c3cccs3)cc2)cc1", "note": "[Compound 5c, N-(4-Methoxyphenyl)-2-(4-(3-oxo-3-(thiophen-2-yl)prop-1-en-1-yl)phenoxy)acetamide]", "values": [{"measurement": "BAX concentration", "setting": "BAX; 5c treated HEP2 cells, untreated 1261.8±7.38", "value": "1342.8 pg/mL and 1342.8 ± 12.7 pg/mL"}, {"measurement": "BAX concentration", "setting": "BAX; 5c treated MCF7 cells, untreated 946.30±12.7", "value": "1099.36 pg/mL and 1099.36 ± 12.8 pg/mL"}, {"measurement": "MMP2 concentration", "setting": "MMP2; 5c treated HEP2 cells, untreated 461.58±45.11", "value": "142.5 pg/mL and 142.5 ± 15.03 pg/mL"}, {"measurement": "MMP2 concentration", "setting": "MMP2; 5c treated MCF7 cells, untreated 466.90±22.55", "value": "185.125 pg/mL and 185.125 ± 30.07 pg/mL"}, {"measurement": "IC50", "setting": "[1]", "value": 12, "unit": "µg/mL"}, {"measurement": "inhibition at 100 µg/mL", "setting": "[1]; single dose 100 µg/mL, read-out: %Inhibition at100 µg/mL HEP2", "value": "> 75", "unit": "%"}]}]}
